# Measured values taken from patent US6867305B2, “Synthesis of epothilones, intermediates thereto and analogues thereof” (Sloan-Kettering Institute for Cancer Research, priority 1996, dated 2005).
# Values joined by “and” are separate entries in the source; they are usually repeats but may differ in a detail not shown here. Equal values may be shown once. Read-outs that look alike come from different tables or passages of the source. Starred links: 1 amine or outer side, 2 acyl side, 3 side chain; linkers in the order of their positions; H or OH if unused. Positions of bridges follow the written chain, without caps; N, C: chain ends. Non-standard residues stand in square brackets, D forms with d. Residues, ends and D or L forms follow the SMILES beside them. Chains are numbered I, II in the order given. Actinocin(9to1) = Cc1c2oc3c(C)ccc(C(=O)[*:1])c3nc-2c(C(=O)[*:2])c(N)c1=O; NMeV = CN[C@H](C(=O)O)C(C)C; Sar = CNCC(=O)O
# Key:
# [1] = test system: CCRF-CEM/VBL100 (vinblastine-resistant subline); experiment: Tumor cell growth inhibition in vitro (XTT, 72 h); assay type: cell-based, human; details: for cross-resistance (fold of resistance vs parent cell line): CCRF-CEM/VBL100 vs CCRF-CEM
# Procedure: (§1) The fresh medium containing each drug was replenished every 7-14 days. […] In each case ,the drug-exposed cells were resuspended in fresh media for a minimum of 4 days before the experiments for the cell-growth inhibition was carried out.
# (§2) The cells were cultured at an initial density of 2-5×10^4 cells per ml. They were maintained in a 5% CO2-humidified atmosphere at 37° C. in RPMI mediun 1640 (GIBCO/BRL) containing penicillin (100 units/ml), streptomycin (100 μg/ml) (GIBCO/BRL), and 5% heat-inactivated fetal bovine serum. For solid tumor cells growing in a monolayer (such as MCF-7/Adr), cytotoxicitiy of the drug was determined in 96-well microtiter plates by using the sulforhodamine B method as described by Skehan et al (23) for measuring the cellular protein content. For cells that were grown in suspension (such as CCRF-CEM and its sublines), cytotoxicitiy was measured by using the 2,-3-bis(2-methoxy-4-nitro-5-sulfophenyl)-5carboxanilide)-2H terazodium hydroxide (XTT)-microculture tetrazonium method (24) in duplicate in 96-well microtiter plates. For both methods, the absorbance of each well was measured with a microplate reader (EL-340, Bio-Tek, Burlington, Vt.). Each run entailed six or seven concentrations of the tested drugs. Dose-effect relationship data were analyzed with the median-effect plot (25) by using a previously described computer program (26).
# [2] = test system: CCRF-CEM human T-cell acute lymphoblastic leukemia cells; experiment: Tumor cell growth inhibition in vitro (XTT, 72 h); assay type: cell-based; details: for IC50: 72 h incubation
# Procedure: as §1, §2
# [3] = test system: CCRF-CEM/VBL; experiment: Relative potency in vitro, very highly resistant MDR cells; assay type: cell-based, human
# Procedure: as §2
# [4] = test system: DC-3F hamster lung fibroblasts; experiment: Tumor cell growth inhibition in vitro; assay type: cell-based; details: read-out: IC50
# Procedure: as §1, §2
# [5] = test system: MCF-7/Adr; experiment: Tumor cell growth inhibition in vitro; assay type: cell-based, human; details: MCF-7/Adr
# Procedure: as §2, with “They were maintained in a 5% CO2-humidified atmosphere at 37° C. in RPMI mediun 1640 (GIBCO/BRL) containing penicillin (100 units/ml), streptomycin (100 μg/ml) (GIBCO/BRL), and 5% heat-inactivated fetal bovine serum.” left out
# [6] = test system: K562 chronic myelocytic leukemia xenograft; experiment: Human tumor xenograft in nude mice; assay type: in vivo
# Procedure: FIG. 34 depicts tumor size in nude mice bearing human leukemia […] tumor following 6 mg/kg C-15-Aza-EpoB, Q2D×6 and 30 mg/kg dEpoF, Q2ED×6 (i.v. infusion […].). K562 tumor cells (1×10^7 in 0.2 mL) were inoculated to nude mice on day 0. Mice were treated with 6 mg/kg aza-EpoB, 6 h-i.v. infusion on days 20, 22, 24, 26, 28 and 30 (Δ, n=3). The same group of mice were then treated with 30 mg/kg dEpoF, 6 h-i.v. infusion on days 42, 44, 46, 48, 52, and 54 (Δ, n=3). […] The control mice (∘, n=3) received vehicle only.
# K562 tumor cells (1×10^7, in 0.2 ml/mouse) were implanted s.c. on day 0. […] The control mice (∘, n=4) received vehicle, Cremophor-ethanol (1:1), only. The vertical bars indicate mean tumor size in mm^3±S.E.
# (§3) Depending on the tumor type, treatment started on day 10 to day 21 when subcutaneous tumor size reached 35-200 mm^3, except otherwise indicated. Tumor size and body-weight were recorded every other day (Q2D) and, for humane reasons, the animals were sacrificed when tumor size reached ≧10% of body-weight. Each group, including untreated control, consisted of 3-5 animals unless otherwise indicated.
# (§4) Athymic nude mice bearing the nu/nu gene were used for all human tumor xenografts. Outbred, Swiss-background mice were obtained from Charles River Laboratories. Male mice 8 weeks or older weighing 22 g and up were used for most experiments. The drug was administered via the tail vein for 6 hr.-i.v. infusion. Each individual mouse was confined in a perforated Falcon polypropylene tube restrainer for drug administration. Tumor volume was assessed by measuring length×width×height (or width) using a caliper. The programmable Harvard PHD2000 syringe pump (Harvard Apparatus) with multi-track was used for i.v. infusion. […] All animal studies were conducted in accordance with the guidelines of the National Institutes of Health “Guide for the Care and Use of Animals” and the protocol approved by the Memorial Sloan-Kettering Cancer Center's Institutional Animal Care and Use Committee. In keeping with the policy of this committee for the humane treatment of tumor-bearing animals, mice were euthanized when tumors reached ≧10% of their total body weight.
# (§5) Human tumor cells (5×10^6) or tumor tissue (30-50 mg) were implanted s.c. flank in nu/nu mice (Charles River Laboratories, Wilmington, Mass.). When tumor grew to a specified size, treatment was started by every-other day×5 with 6 hr i.v.-infusion, unless otherwise indicated. Tumor volume was measured with calipers in three dimensions (length×width×height or width). Body-weight changes and lethality were monitored every other day.
# [7] = test system: PC-3 prostate adenocarcinoma xenograft; experiment: Human tumor xenograft in nude mice; assay type: in vivo
# Procedure: as §3, §4, §5
# [8] = test system: MCF-7 human mammary adenocarcinoma; experiment: Tumor cell growth inhibition in vitro; assay type: cell-based; details: read-out: IC50
# Procedure: as §2, with “They were maintained in a 5% CO2-humidified atmosphere at 37° C. in RPMI mediun 1640 (GIBCO/BRL) containing penicillin (100 units/ml), streptomycin (100 μg/ml) (GIBCO/BRL), and 5% heat-inactivated fetal bovine serum.” left out
# [9] = test system: MCF-7/Adr mammary xenograft; experiment: Human tumor xenograft in nude mice; assay type: in vivo
# [10] = test system: HCT-116 colon carcinoma xenograft; experiment: Human tumor xenograft in nude mice; assay type: in vivo; details: HCT-116, i.v. infusion
# Source text: Therapeutic efficacy of cancer chemotherapeutic agents varies with various factors including the tumor models used and the dosage of drug and schedules and routes of administration. […] In the present studies, we intended to compare the therapeutic effects of drugs near their maximal tolerated doses by measuring the extent of body-weight decreases and/or lethality.
# as §3, §4, §5
# [11] = test system: MX-1 mammary carcinoma xenograft; details: MX-1, i.p., ref 19 (Table 4)
# [12] = test system: CCRF-CEM/VM1 (teniposide-resistant subline); experiment: Tumor cell growth inhibition in vitro (XTT, 72 h); assay type: cell-based, human; details: Homo sapiens, CCRF-CEM, 72 h
# Procedure: as §1, §2
# [13] = test system: A549 lung carcinoma xenograft; experiment: Human tumor xenograft in nude mice; assay type: in vivo; details: A549, i.v. infusion
# Procedure: as §3, §4, §5
# [14] = test system: CCRF-CEM/VM2; experiment: Cell growth inhibition, resistant subline; assay type: cell-based, human
# Procedure: as §1, §2
# [15] = test system: CCRF-CEM/Taxol (paclitaxel-resistant subline); experiment: Tumor cell growth inhibition in vitro (XTT, 72 h); assay type: cell-based, human
# Procedure: as §1, §2
# [16] = test system: K562 human chronic myeloblastic leukemia; experiment: Tumor cell growth inhibition in vitro; assay type: cell-based; details: Homo sapiens, K562, K562
# Procedure: as §2, with “They were maintained in a 5% CO2-humidified atmosphere at 37° C. in RPMI mediun 1640 (GIBCO/BRL) containing penicillin (100 units/ml), streptomycin (100 μg/ml) (GIBCO/BRL), and 5% heat-inactivated fetal bovine serum.” left out
# [17] = test system: tubulin; experiment: Tubulin-binding / tubulin polymerization assay; assay type: biochemical
compound,measurement,setting,value
"CC1=CCC(C(C)=Cc2csc(C)n2)NC(=O)CC(O)C(C)(C)C(=O)C(C)C(O)C(C)CCC1 [15-epi-aza-dEpoB, 12,13,15-desoxy-15(R)-aza-epothilone B]",IC50,"[1]; CCRF-CEM/VBL100, 72 h, read-out: IC50",551 nM
same,cross-resistance (fold of resistance vs parent cell line),[1],4.6 x
same,IC50,"[2]; CCRF-CEM, read-out: IC50",119 nM
"C/C1=C/C[C@@H](/C(C)=C/c2csc(C=O)n2)OC(=O)C[C@H](O)C(C)(C)C(=O)[C@H](C)[C@@H](O)[C@@H](C)CCC1 [21-oxo-dEpoB, 21-oxo-desoxyepothilone B]",potency relative to dEpoB (times less potent),[2]; CCRF-CEM,about 3.7 ×
same,IC50,"[2]; CCRF-CEM, read-out: IC50",27 nM
same,potency relative to dEpoB (times less potent),[3]; MDR CCRF-CEM/VBL cells,5.1 ×
same,Fold of Resistance (B)/(A),[3]; [IC50 CCRF-CEM/VBL]/[IC50 CCRF-CEM],11.9 x
same,IC50,"[3]; very highly resistant MDR CCRF-CEM/VBL cells, read-out: CCRF-CEM/VBL IC50",326 nM
"Cc1c2oc3c(C)ccc(C(=O)N[C@@H]4C(=O)N[C@H](C(C)C)C(=O)N5CCC[C@H]5C(=O)N(C)CC(=O)N(C)[C@@H](C(C)C)C(=O)O[C@@H]4C)c3nc-2c(C(=O)N[C@@H]2C(=O)N[C@H](C(C)C)C(=O)N3CCC[C@H]3C(=O)N(C)CC(=O)N(C)[C@@H](C(C)C)C(=O)O[C@@H]2C)c(N)c1=O [Actinomycin D, actinomycin D, reference compound] (I: T[dV]P[Sar][NMeV] / II: T[dV]P[Sar][NMeV]; ester I:1-I:C, II:1-II:C; linker I:N-II:N via Actinocin(9to1))",IC50,[4],0.25 nM and 0.31 nM
"COc1cccc2c1C(=O)c1c(O)c3c(c(O)c1C2=O)C[C@@](O)(C(=O)CO)C[C@@H]3O[C@H]1C[C@H](N)[C@H](O)[C@H](C)O1 [Adriamycin, doxorubicin, reference compound]",IC50,"[5]; Homo sapiens, NCI/ADR-RES",280 nM
same,IC50,[5],316 nM
same,Therapeutic Effect Rank Order,"[6]; K562, i.v. infusion, FIG. 3 & 4",dEpoB>>>VBL> Taxol> Adriamycin
same,therapeutic effect,"[6]; K562, dEpoB 30 mg/kg, Taxol 20 mg/kg 6 hr i.v. infusion, Adriamycin 3 mg/kg, vinblastine 2.5 mg/kg i.v., every other day from day 20 (FIG. 36)",only partial curative or remissive effects
same,Therapeutic Effect Rank Order,"[7]; PC-3, i.v. or i/p.",Taxol>dEpoB>>Adriamycin
same,IC50,"[8]; Homo sapiens, MCF7, MCF-7",81 nM
same,IC50,[8]; MCF-7,90 nM
same,Therapeutic Effect Rank Order,"[9]; i.p., ref 19 (Table 5)",dEpoB>Camptothecin>Adriamycin>Taxol
same,Therapeutic Effect Rank Order,[9]; i.v. infusion,"dEpoB>>VP-16, Taxol>VBL, Adriamycin"
"CCc1c2c(nc3ccc(OC(=O)N4CCC(N5CCCCC5)CC4)cc13)-c1cc3c(c(=O)n1C2)COC(=O)[C@]3(O)CC [CPT-11, Irinotecan, reference compound]",Therapeutic Effect Rank Order,[10],"Taxol, CPT-11≈dEpoB, dEpoF"
"CC[C@@]1(O)C(=O)OCc2c1cc1n(c2=O)Cc2cc3ccccc3nc2-1 [Camptothecin, camptothecin, reference compound]",Therapeutic Effect Rank Order,"[9]; i.p., ref 19 (Table 5)",dEpoB>Camptothecin>Adriamycin>Taxol
same,Therapeutic Effect Rank Order,[11],"dEpoB>Camptothecin>Taxol>VBL, EpoB"
"COc1cc([C@@H]2c3cc4c(cc3[C@@H](O[C@@H]3O[C@@H]5CO[C@@H](C)O[C@H]5[C@H](O)[C@H]3O)[C@H]3COC(=O)[C@H]23)OCO4)cc(OC)c1O [Etoposide, etoposide, reference compound]",IC50,[12],3440 nM
same,IC50,[2]; CCRF-CEM,29 nM
same,Therapeutic Effect Rank Order,"[7]; PC-3, i.v. infusion","Taxol, VBL>dEpoB>>VP-16"
same,Therapeutic Effect Rank Order,[13],"Taxol, dEpoB, VBL>VP-16"
same,fold resistance vs original CCRF-CEM,[14]; CCRF-CEM/VM2,69 fold
same,IC50,"[14]; Homo sapiens, CCRF-CEM/VM2, exposed to teniposide 12 months",19800 nM
same,Therapeutic Effect Rank Order,[9]; i.v. infusion,"dEpoB>>VP-16, Taxol>VBL, Adriamycin"
"C/C1=C/CC(/C(C)=C/c2csc(C)n2)NC(=O)CC(O)C(C)(C)C(=O)[C@H](C)[C@@H](O)[C@@H](C)CCC1 (stereo partly drawn) [aza-dEpoB, 12,13,15-desoxy-15(S)-aza-epothilone B]",cross-resistance (fold of resistance vs parent cell line),[1],35.8 x
same,IC50,"[1]; Homo sapiens, CCRF-CEM, 72 h",997 nM
same,cross-resistance (fold of resistance vs parent cell line),[15]; CCRF-CEM/Taxol vs CCRF-CEM,38.4 x
same,IC50,"[15]; Homo sapiens, CCRF-CEM, 72 h",791 nM
same,IC50,"[2]; Homo sapiens, CCRF-CEM, 72 h",27.8 nM
same,potency relative to aza-EpoB (fold less potent),[2]; in vitro cell lines,about 10 fold
same,IC50,[16],2.4 nM
C/C1=C/CC(/C(C)=C/c2csc(COC(=O)c3c(F)c(F)c(N=[N+]=[N-])c(F)c3F)n2)OC(=O)CC(O)C(C)(C)C(=O)C(C)C(O)[C@@H](C)CCC1 (stereo partly drawn) [compound 66],induction of tubulin polymerization,[17],did not induce tubulin polymerization
